Here are results for eight compounds from patent publication US20050171101A1 (Fujisawa Pharmaceutical Co. Ltd., priority 2002, published 2005).

SMILES strings stand for the structures. Structures can show the parent of a compound that is named as a salt.

recombinant human PARP, sequence (P09874 whole entry): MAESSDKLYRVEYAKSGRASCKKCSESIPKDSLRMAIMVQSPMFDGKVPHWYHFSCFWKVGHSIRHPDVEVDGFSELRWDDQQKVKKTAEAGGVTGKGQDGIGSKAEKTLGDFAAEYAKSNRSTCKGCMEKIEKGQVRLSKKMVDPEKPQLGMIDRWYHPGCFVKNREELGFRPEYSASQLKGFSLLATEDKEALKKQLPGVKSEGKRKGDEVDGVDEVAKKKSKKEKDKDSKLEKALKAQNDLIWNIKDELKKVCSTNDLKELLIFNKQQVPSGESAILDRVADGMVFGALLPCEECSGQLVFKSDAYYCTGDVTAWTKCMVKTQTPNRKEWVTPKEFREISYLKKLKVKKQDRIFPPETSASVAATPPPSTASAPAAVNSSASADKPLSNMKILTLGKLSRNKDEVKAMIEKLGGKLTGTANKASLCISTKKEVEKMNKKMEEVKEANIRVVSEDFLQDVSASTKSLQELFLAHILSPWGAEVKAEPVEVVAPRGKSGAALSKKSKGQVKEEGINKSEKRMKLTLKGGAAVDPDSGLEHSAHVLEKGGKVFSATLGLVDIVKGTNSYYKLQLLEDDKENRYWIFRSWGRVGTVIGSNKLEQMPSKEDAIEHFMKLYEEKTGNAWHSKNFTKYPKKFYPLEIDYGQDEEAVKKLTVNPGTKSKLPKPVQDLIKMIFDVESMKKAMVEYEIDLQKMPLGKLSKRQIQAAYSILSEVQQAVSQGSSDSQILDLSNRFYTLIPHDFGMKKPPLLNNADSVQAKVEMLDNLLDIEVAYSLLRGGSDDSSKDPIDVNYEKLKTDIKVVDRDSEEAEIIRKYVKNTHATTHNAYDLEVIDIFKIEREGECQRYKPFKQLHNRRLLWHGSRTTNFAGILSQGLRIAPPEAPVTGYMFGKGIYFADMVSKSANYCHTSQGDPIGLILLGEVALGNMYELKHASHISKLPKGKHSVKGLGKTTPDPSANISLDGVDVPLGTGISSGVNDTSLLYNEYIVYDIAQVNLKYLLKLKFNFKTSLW

The assay addresses recombinant human PARP (Homo sapiens, UniProt P09874). The assay can be described thus: PARP inhibitory activity (In vitro assay). It is filed as biochemical. As to conditions: 32P-NAD, 0.05 mM NAD, activated DNA, pH8.0, 15 minutes at room temperature. As for the experimental part:
PARP inhibitory activity (In vitro assay)
The recombinant human PARP (5.3 mg protein/ml) was incubated with a test compound in a 100 μl reaction buffer containing an indicated concentration of 1 mCi/ml ^32P-NAD, 50 mM Tris-HCl, 25 mM MgCl2, 1 mM DTT (dithiothreitol), 0.05 mM NAD (nicotinamide adenine dinucleotide) and 1 mg/ml activated DNA, pH8.0. Incubation was carried out for 15 minutes at a room temperature, and the reaction was stopped by addition of 200 μl of ice-cold 20% tricholoroacetic acid followed by rapid filtration through GF/B filters. The […] was treated with scintillation fluid and acid-insoluble counts were measured for quantification of unit activity. PARP inhibitory activity was calculated by using the following formula: PARP inhibitory activity (%)=[1-(count obtained with test compound)/(count obtained with vehicle only)]×100
By IC50 is commonly meant the midpoint of a concentration-inhibition curve. Take `O=c1[nH]c2cc(CN3CC=C(c4ccc(Cl)cc4)CC3)ccc2c2c1CCCC2` [Example 15, 3-{[4-(4-Chlorophenyl)-3,6-dihydro-1(2H)-pyridyl]methyl}-7,8,9,10-tetrahydro-6(5H)-phenanthridinone]: the IC50 is below 100 nM.
Regarding `O=c1[nH]c2cc(CN3CCCCC3)ccc2c2ccccc12` [Example 60, 3-(1-piperidylmethyl)-6(5H)-phenanthridinone], the 50% inhibitory concentration (IC50) was below 100 nM.
On to `O=c1[nH]c2cc(CN3CCC(O)(c4ccccc4)CC3)ccc2c2c1CCCC2` [Example 35, 3-[(4-hydroxy-4-phenyl-1-piperidyl)methyl]-7,8,9,10-tetrahydro-6(5H)-phenanthridinone hydrochloride], for which the IC50 is below 100 nM.
As to `O=c1[nH]c2cc(CN3CCN(c4ccc(Cl)cn4)CC3)ccc2c2ccccc12` [Example 52, 3-{[4-(5-chloro-2-pyridyl)-1-piperazinyl]methyl}-6(5H)-phenanthridinone dihydrochloride], the IC50 is below 100 nM.
The result for `Cc1ccc(C2CCN(Cc3ccc4c(c3)[nH]c(=O)c3ccccc34)CC2)nc1` [Example 63, 3-{[4-(5-methyl-2-pyridyl)-1-piperidyl]methyl}-6(5H)-phenanthridinone] reads below 100 nM.
The result for `O=c1[nH]c2ccc(CCCN3CC=C(c4ccc(F)cc4)CC3)cc2c2ccccc12` [Example 2, 2-{3-[4-(4-fluorophenyl)-3,6-dihydro-1 (2H)-pyridyl]propyl}-6(5H)-phenanthridinone] reads below 100 nM.
The result for `Cc1ccc(C2CCN(Cc3ccc4c5c(c(=O)[nH]c4c3)CCCC5)CC2)cc1` [Example 30, 3-{[4-(4-methylphenyl)-1-piperidyl]methyl}-7,8,9,10-tetrahydro-6(5H)-phenanthridinone hydrochloride] reads below 100 nM; that for `O=c1[nH]c2c(Oc3ccccn3)cccc2c2c1CCCC2` [Example 42], below 100 nM.
